Calls of active or inactive are those of the source.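 Rule for the calls: active = cell-killing curve crosses a set limit at a concentration no more than twice the top valid dose; inconclusive = flat curve with a 30 to 70% loss, or a poor fit; inactive = signal rising instead of falling, and the rest.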
Assay: cytotoxicity in EWS/Fli1-dependent TC71 cells – cell-based, luminescence, cherry-picked samples, retest, confirmation (AID 720570)
Conditions: TC71 Ewing sarcoma viability, CellTiter-Glo ATP, 72 h

Compound	activity change, negative = cytotoxicity (at 26 µM (top of the series))	activity change, negative = cytotoxicity (at 23.5 µM (top of the series))
COC(=O)Cc1[nH]n(-c2nc3ccccc3s2)c(=O)c1C(C)=Nc1ccc(C)cc1	-7.01% (inactive)	
O=C(NCc1ccccn1)c1ccc(CNS(=O)(=O)c2cccc(Cl)c2)cc1	3.71% (inactive)	
CCCCNC1=CC(=O)C(=O)c2ccccc21	3.77% (inactive)	
O=C(CCCCl)Nc1nc(-c2ccc3c(c2)OCCO3)cs1	3.63% (inactive)	
CCOc1cc(N2CCC(O)CC2)ccc1Nc1ncc2c(n1)N(C)c1ccccc1C(=O)N2C	-28.3% (inactive)	
O=C(Nc1nc(-c2ccc(F)c(F)c2)cs1)c1ccc(OCC2CCCO2)cc1 (configuration not stated)	1.49% (inactive)	
Cc1cccc(/C=N/Nc2ccc3ccccc3n2)c1	-16.4% (inactive)	
COC(=O)C[C@@H]1CC[C@H]2[C@H](COc3ccc(NC(=O)Nc4cc(C)cc(C)c4)cc3C(=O)N2C)O1	5.7% (inactive)	
N#Cc1cccc(-c2ccc(C3[C@@H]4CN(C(=O)Cc5ccncc5)C[C@H]3N4)cc2)c1 (some centres not stated)	0.809% (inactive)	
C=C1C(=O)C=C[C@]2(C)C[C@@H]3OC(=O)[C@](C)(O)[C@H]3C[C@@H]12	-94.2% (inactive)	
O=C(CCCN1C(=O)S/C(=C\c2ccccc2)C1=O)NNC(=O)c1ccccc1O	5.39% (inactive)	
CN(C)c1ccc(/C=N/Nc2nc3ccccc3o2)cc1	1.68% (inactive)	
COc1ccc(S(=O)(=O)N=Nc2c(O)[nH]c3ccccc23)cc1	5.63% (inactive)	
CCCCN=C(NNc1ccc(Br)cc1)C(=O)OCC	4.46% (inactive)	
Cc1csc(NC(=O)CCc2c(C)nc3cc(-c4ccc(Cl)cc4)nn3c2C)n1	10.8% (inactive)	
COc1ccc(C(=O)CN2C(=O)c3ccccc3S2(=O)=O)cc1	19.9% (inactive)	
CCc1ccc(/C=C2\SC(=S)N(CCC(=O)Nc3cc(C)on3)C2=O)cc1	9.95% (inactive)	
CN(C)[C@@H]1CCC[C@@H]1OC(=O)C(c1ccccc1)c1ccccc1	10.9% (inactive)	
OCCN1CCN(C(=S)c2ccc(-c3ccccc3)cc2)CC1	-0.296% (inactive)	
CCOc1ccc(N=C2C(=O)Nc3ccc(C)c(Br)c32)cc1	8.53% (inactive)	
Cc1ccc(NC(=O)COC(=O)c2ccc3c(c2)OCO3)cc1S(=O)(=O)N1CCCCC1	10.2% (inactive)	

Compound	activity change, negative = cytotoxicity (at 26 µM (top of the series))	activity change, negative = cytotoxicity (at 23.5 µM (top of the series))
Cc1cc(C(=O)CN2C(=O)c3ccccc3S2(=O)=O)c(C)n1C(C)C	3.94% (inactive)	
Cc1nc2cc(-c3ccc(Cl)cc3)nn2c(C)c1CCC(=O)NC(C)c1ccc2c(c1)OCCO2 (configuration not stated)	14.2% (inactive)	
COc1ccc(/C=C2/SC(=S)N(CCCC(=O)Nc3ccccc3C(=O)O)C2=O)cc1	15% (inactive)	
N#C[C@@H]1[C@H](c2ccc(C#Cc3ccccc3F)cc2)[C@@H](CO)N1C(=O)c1cccnc1	13.1% (inactive)	
C(=N\Nc1ccc2ccccc2n1)/c1ccc2c(c1)OCCO2	-8.46% (inactive)	
O=C1NC(=O)N(CCc2ccc(F)cc2)C(=O)/C1=C/C=C/c1ccccc1	11.3% (inactive)	
C[C@@H]1CN([C@@H](C)CO)S(=O)(=O)c2ccc(C#Cc3ccncc3)cc2O[C@H]1CN(C)S(=O)(=O)c1ccccc1	-2.93% (inactive)	
COc1ccc2oc(-c3ccccc3)cc(=O)c2c1	1.87% (inactive)	
C/C(=N\N(c1ccccc1)c1ccccc1)c1ccco1	12.8% (inactive)	
CCCN1C(=O)/C(=C/c2nc3ccccc3c(=O)[nH]2)c2ccccc21	3.09% (inactive)	
CC(C)(C)c1ccc(/C=N/Nc2ccc(C(=O)O)cc2)cc1	1.96% (inactive)	
Nc1ccc(-c2cc3ccccc3c(=O)o2)cc1	14.9% (inactive)	
CCNC(=O)c1cccc(S(=O)(=O)N2CCCCCC2)c1	-7.03% (inactive)	
O=c1c2ccccc2oc2cc(C#CC3(O)CCCCC3)ccc12	-17.6% (inactive)	
Cc1ccccc1N=CC1=C(O)c2ccccc2C1=O	20.2% (inactive)	
Cc1ccc(N=C2NC(=O)/C(=C\c3cccs3)S2)cc1C	-0.931% (inactive)	
C(=N\Nc1ccc2ccccc2n1)/c1ccc2c(c1)OCO2	-9% (inactive)	
COc1ccccc1N(/N=C1\Sc2ccccc2C1=O)C(C)=O	-15.8% (inactive)	
C[C@@H]1CN([C@H](C)CO)C(=O)CCCn2nncc2CO[C@H]1CN(C)Cc1ccc(Oc2ccccc2)cc1	-9.65% (inactive)	
COc1ccc(NS(=O)(=O)c2cc(NC(=O)CNC(=O)c3cccc(OC)c3)ccc2C)cc1	-0.075% (inactive)	
Cc1ccsc1C(=O)OCC(=O)NCCC1=CCCCC1	9.59% (inactive)	

Compound	activity change, negative = cytotoxicity (at 26 µM (top of the series))	activity change, negative = cytotoxicity (at 23.5 µM (top of the series))
COc1ccc(CCC(C)NCC2CCCCC2)cc1 (configuration not stated)	7.46% (inactive)	
Nc1ccc2oc(-c3cc(Br)ccc3Cl)nc2c1	-14.7% (inactive)	
Nc1ccc(Oc2ccccc2-c2ccccc2)cc1	5.42% (inactive)	
Cc1ccc(Cc2c(-c3ccco3)nc3c(C)cc(Br)cn23)cc1	-21.5% (inactive)	
CN(CCO)c1ccc(/C=N/Nc2nncc3ccccc23)cc1	0.119% (inactive)	
O=C(O)CN1C(=O)/C(=C\c2ccccc2OCc2ccc(Cl)cc2Cl)SC1=S	10.8% (inactive)	
O=C(Nc1cccc(Oc2ccc3c(c2)C(=O)NC3=O)c1)c1cccs1	9.53% (inactive)	
COC(=O)COc1ccc(-c2nccc(-c3ccccn3)n2)cc1	7.95% (inactive)	
COC(=O)C[C@@H]1CC[C@@H]2[C@H](COc3ccc(NC(=O)Nc4ccc(C#N)cc4)cc3C(=O)N2C)O1	4.12% (inactive)	
COCCOC(=O)N1C(=O)[C@@]2(c3cc(C#CCC(C(=O)OC)C(=O)OC)ccc31)[C@H](c1ccccc1OCCO)N1[C@H](c3ccccc3)[C@H](c3ccccc3)OC(=O)[C@H]1[C@@H]2C(=O)N1CCN(c2ncccn2)CC1	16.1% (inactive)	
C[C@@H]1CN([C@@H](C)CO)C(=O)c2cccc(NC(=O)Nc3ccccc3)c2O[C@@H]1CN(C)Cc1ccc(-c2ccccc2)cc1	20.4% (inactive)	
CC(C)c1ccccc1NC(=O)COC(=O)CCN1C(=O)/C(=C\C=C\c2ccccc2)SC1=S	19.1% (inactive)	
COc1ccc(/C=C2\SC(=O)N(CCCC(=O)Nc3cc(Cl)ccc3C(=O)O)C2=O)cc1	5.69% (inactive)	
COc1ccc(C=NNc2nc3ccccc3s2)cc1	-1.49% (inactive)	
C[C@@H]1CN([C@H](C)CO)C(=O)c2cc(NC(=O)Nc3ccccc3)ccc2O[C@@H]1CN(C)Cc1ccc(C(=O)Nc2ccccc2N)cc1	-33.9% (inactive)	
O=C(O)c1ccc2cc(-c3ccccc3)[nH]c2c1	10.6% (inactive)	
COC(=O)C[C@@H]1CC[C@@H]2[C@@H](COc3ccc(NC(=O)Nc4ccccc4C)cc3C(=O)N2C)O1		14.2% (inactive)
O=C(NC1CCCC1)C(c1ccccc1)n1c(CSCCOc2ccccc2)nc2ccccc21 (configuration not stated)	3.49% (inactive)	
O=C1C(=O)N(CCS(=O)(=O)c2ccccc2)c2ccccc21	2.35% (inactive)	
CC(C)CN(C(=O)CN1CCOCC1)c1c(N)n(CC(C)C)c(=O)[nH]c1=O	-2.81% (inactive)	
CCOc1cc2[nH]c(=S)n(Cc3ccc(C(=O)NCCN(CC)CC)cc3)c(=O)c2cc1OCC	11.4% (inactive)	

Compound	activity change, negative = cytotoxicity (at 26 µM (top of the series))	activity change, negative = cytotoxicity (at 23.5 µM (top of the series))
COc1cccc(S(=O)(=O)N(C)C[C@H]2OCc3cnnn3CCCC(=O)N([C@@H](C)CO)C[C@H]2C)c1	-0.98% (inactive)	
O=C1CCC2S/C(=C/Nc3ccc(C(F)(F)F)cc3)C(=O)N12 (configuration not stated)	11.9% (inactive)	
O=C1C(=O)N(CCS(=O)(=O)c2ccccc2)c2ccc(Cl)cc21	20.1% (inactive)	
Cc1ccccc1N=Nc1c(O)n(C)c2ccccc12	3.17% (inactive)	
C/C(=N\Nc1cccc2cccnc12)c1ccccn1	3.52% (inactive)	
c1cncc(-c2ccc([C@@H]3[C@H]4CNC[C@@H]3N4CC3CCOCC3)cc2)c1	5.7% (inactive)	
C=C(C(=O)c1ccccc1)C(C(=C)C(=O)c1ccccc1)c1ccc(OC)cc1	10.8% (inactive)	
COc1ccc(Nc2ncnc3ccc(Br)cc23)c(OC)c1	6.89% (inactive)	
C=CCOC(=O)c1sc(NC(=O)c2ccc(OC)cc2)nc1C	-3.67% (inactive)	
C=CCOc1ccccc1C(=O)/C=C1/C(=O)Nc2ccccc21	-30.1% (inactive)	
O=C(O)c1cccc(N/N=C/c2ccc(OC(F)(F)F)cc2)c1	1.52% (inactive)	
COc1ccc2nc(-c3ccc(F)cc3)sc2c1	-14.1% (inactive)	
CCCN(C)C[C@H]1Oc2ncc(-c3ccccc3)cc2C(=O)N([C@@H](C)CO)C[C@H]1C	13% (inactive)	
Cc1sc2nc(CN3CCC(C)CC3)nc(Cl)c2c1C	16.2% (inactive)	
COCCCNc1ccn2nc(-c3ccccc3)cc2n1	-3.56% (inactive)	
COc1cc(OC)cc(-c2cc3nc(C)c(CCC(=O)O)c(C)n3n2)c1	13.7% (inactive)	
N#C[C@H]1[C@H](c2ccc(C#Cc3ccccc3F)cc2)[C@@H](CO)N1C(=O)C1CCCCC1		-17% (inactive)
CCOC(=O)C1CCCCN1C(=O)CCc1c(C)nc2cc(-c3ccccc3)nn2c1C (configuration not stated)	11.3% (inactive)	
S=C(NCCN1CCOCC1)Nc1ccccc1Cl	11.4% (inactive)	

From PubChem BioAssay AID720570 (Broad Institute, 2013)
